Reference: patent US12570603B2, “FABP4/5 inhibitors, methods of use and methods of making” (Novius Therapeutics, LLC, priority 2021, dated 2026)
pKd: −log10 of the molar value.

Experiments:
FABP4 = biological target: T1, FABP4 (Homo sapiens, UniProt P15090); experiment: FABP binding assay by fluorescence titration (ANS competition); settings: fluorescence competition with ANS; read-out: FABP4 binding
T1 construct: made in house
Experimental: (§1) This example illustrates a binding assay study used to determine the binding affinity of the various inhibitor compounds disclosed herein with the various FABPs: FABP3, FABP4, FABP5 and FABP7.
(§2) Binding assays for FABP3, FABP4, FABP5 and FABP7 were carried out by fluorescence titrations. FABPs were bacterially expressed and purified and the equilibrium dissociation constants (Kd) that characterize their interactions with different compounds were measured by fluorescence competition assays. The method entails two steps as described in e.g., Lin, Q. et al., “Ligand selectivity of the peroxisome proliferator-activated receptor alpha,” Biochemistry 38, 185-190, doi:10.1021/bi9816094 bi9816094 [pii](1999). In the first step, Kd for the association of the protein with the fluorescent fatty acid probe ANS was measured. Protein ([…]) was titrated with ANS from a concentrated solution in DMSO. Ligand binding was monitored by following the increase in the fluorescence of the ligand upon binding to the protein, and Kd for the association of ANS with the each FABP was computed from titration curves as described in e.g., Norris, A. W. & Li, E., “Fluorometric titration of the CRABPs,” Methods Mol Biol 89, 123-139 (1998)). Kds for binding of non-fluorescent ligands were then measured by monitoring their ability to displace ANS in the binding pocket of the protein. Each FABP was pre-complexed with ANS at 1:1 molar ratio and titrated with the different compounds whose binding was reflected by a decrease in probe fluorescence. Kds were extracted from the EC50 of the competition curve and the measured Kd for ANS.
(§3) Binding assays for FABP3, FABP4, FABP5 and FABP7 were carried out by fluorescence titrations as described in Example 16.

FABP5 = biological target: T2, FABP5 (Homo sapiens, UniProt Q01469); experiment: as above; settings: fluorescence competition with ANS; read-out: FABP5 binding
T2 construct: made in house
Experimental: as §1, §2, §3

PPARα = biological target: T3, PPARα (Homo sapiens, UniProt Q07869); experiment: Transactivation assay, PPRE luciferase reporter in COS-7 cells; assay type: cell-based
T3 construct: expressed in transfected cells; host or cells: COS-7
Experimental: (§4) COS-7 were cultured in 6-well plates and co-transfected with either a luciferase reporter driven by 3 copies of a PPRE and expression vector for either PPARδ, PPARα or PPARγ together with a vector harboring cDNA for β-galactosidase, serving as a transfection control. To test whether FABP4 or FABP5 mediate activation of their cognate receptors PPARγ and PPARδ, respectively, cells were also co-transfected with a plasmid harboring sequence of either FABP4 or FABP5. 18 h post-transfection, cells were placed in a serum-free medium and treated with agonist/compound. 18 h. later, cells were lysed, luciferase activity was assayed (Promega, WI, USA) and corrected for transfection efficiency by the activity of β-galactosidase.
(§5) COS-7 were cultured in 6-well plates and co-transfected with either a luciferase reporter driven by 3 copies of a PPRE and expression vector for either PPARδ, PPARα or PPARγ together with a vector harboring cDNA for β-galactosidase, serving as a transfection control. 18 h. post-transfection, cells were placed in a serum-free medium and treated with agonist/compound. 18 h. later, cells were lysed, luciferase activity was assayed (Promega, WI, USA) and corrected for transfection efficiency by the activity of β-galactosidase.

PPARγ = experiment: as above; assay type: cell-based; settings: for activation of PPARγ: 5 μM, COS7 cells, FIG. 36C; for activation of transcription by PPARγ: tested against rosiglitazone, FIG. 4
Experimental: as §4, §5

PPARδ = experiment: as above; assay type: cell-based
Experimental: as §4, §5

MB-231 cells = experiment: Proliferation assay (Incucyte confluency, 4 days); assay type: cell-based; settings: MB-231, serial dilution
Experimental: (§6) COS-7, MDA-MB-231, HepG2, LX-2, 3T3-L1, NPG, and MCF7 were cultured in Dulbecco's modified Eagle's medium (DMEM) supplemented with 10% fetal bovine serum (Invitrogen Life Sciences, Carlsbad, CA). MDA-MB-157 and MB-549 cells were cultured in L-Glutamine containing RPMI medium supplemented with 10% fetal calf serum (Invitrogen Life Sciences, Carlsbad, CA). For proliferation assays, 2000 cells were plated in each well of 96-well plate. The next day cells were treated with compounds and incubated in Incucyte for 4 days. Images taken every 4 hours for the duration of the time were analyzed to calculate percentage of confluency in response to the treatments.
The TNBC line MB-231 was used to calculate the efficacy of compounds B104, B106, B110, B116, and B118 in inhibiting proliferation of the cancer cells. Cells were treated with serial dilution of the compounds or the known FABP5/7 inhibitor SBF-I26 and proliferation was measured in Incucyte by calculating percentage of confluency every 4 hours over 4 days. […] The EC50 for each compound was calculated by fitting the percentage of inhibition vs. the logarithmic transformation of the used concentrations (FIG. 37B and FIG. 37D). Additionally, the effect of B116 and B118 was also tested on proliferation of the human TNBC lines MDA-MB-157 (FIG. 37E) and MB-549 (FIG. 37F).

[1] = tested on: NPG human neuroblastoma cells; experiment: Neuroblastoma proliferation assay with or without all-trans retinoic acid; assay type: cell-based; settings: for proliferation of neuroblastoma cells in combination with atRA: combined with atRA; for proliferation of neuroblastoma cells: compound alone, 4 days
Experimental: as §6
Activation of PPARβ by atRA shifts the signaling of this vitamin from its cognate receptor RAR that is known to have anti-carcinogenic activities in multiple cancers to the pro-carcinogenic PPARβ. […] Accordingly, NB, human NPG cells were used to test the effect of FABP5 inhibitors on cells' proliferation in combination with atRA. Cells were treated with either B104 or B108 in the presence or absence of atRA.

[2] = tested on: FABP4 together with PPARγ; experiment: Transcriptional activation assay in cells overexpressing FABP4, with PPARγ activator rosiglitazone; assay type: cell-based; settings: FIG. 7
Experimental: as §4

[3] = tested on: FABP5 together with PPARδ; experiment: Transcriptional activation assay in cells overexpressing FABP5, with PPARδ activator GW0742; assay type: cell-based; settings: together with GW0742, FIG. 8
Experimental: as §4

[4] = tested on: PPARδ targets PDPK1 and CD47 in TNBC cells MB-231; experiment: Real-time PCR of PPARδ targets; assay type: cell-based; settings: MB-231, 1 μM, 6 hours
Experimental: (§7) Cells were treated with a compound for 6 h. then lysed and RNA was extracted using Trizol, according to the manufacturer's instructions. cDNA was generated using GeneAmp RNA PCR (Applied Biosystems). qPCR was carried out using TaqMan chemistry and Assays-on-Demand probes (Applied Biosystems). 18s (4352930) rRNA was used for normalization. Relative expression was calculated as 2^−ΔΔCT.

[5] = tested on: PPARδ targets PDPK1 and CD47 in TNBC cells MB-157; experiment: Real-time PCR of PPARδ targets; assay type: cell-based, human; settings: MB-157, 1 μM, 6 hours
Experimental: as §7

[6] = tested on: MB-231 shC and shF5 cells; experiment: Proliferation assay, MB-231 lines expressing control shRNA (shC) or FABP5 shRNA (shF5); assay type: cell-based; settings: MB-231 shC vs shF5, different concentrations
Experimental: (§8) 2000 cells were plated in each well of 96-well plate. The next day cells were treated with compounds and incubated in Incucyte for 4 days. Images taken every 4 hours for the duration of the time were analyzed to calculate percentage of confluency in response to the treatments. Growth inhibition was calculated as 1−(percentage of viable cells out of untreated cells).

TNBC lines and MCF7 = experiment: Proliferation assay in multiple TNBC lines and MCF7, MB-231 shF5 as control; assay type: cell-based
Experimental: as §8

T2 sequence (Q01469 whole entry, species assumed): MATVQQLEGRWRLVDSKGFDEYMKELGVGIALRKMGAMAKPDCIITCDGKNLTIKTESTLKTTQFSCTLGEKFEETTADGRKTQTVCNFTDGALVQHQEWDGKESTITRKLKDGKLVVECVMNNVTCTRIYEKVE
T1 sequence (P15090 whole entry, species assumed): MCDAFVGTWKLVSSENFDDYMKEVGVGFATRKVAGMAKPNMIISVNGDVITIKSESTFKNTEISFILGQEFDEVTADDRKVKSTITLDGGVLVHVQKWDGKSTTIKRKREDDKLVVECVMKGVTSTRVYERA
T3 sequence (Q07869 whole entry, species assumed): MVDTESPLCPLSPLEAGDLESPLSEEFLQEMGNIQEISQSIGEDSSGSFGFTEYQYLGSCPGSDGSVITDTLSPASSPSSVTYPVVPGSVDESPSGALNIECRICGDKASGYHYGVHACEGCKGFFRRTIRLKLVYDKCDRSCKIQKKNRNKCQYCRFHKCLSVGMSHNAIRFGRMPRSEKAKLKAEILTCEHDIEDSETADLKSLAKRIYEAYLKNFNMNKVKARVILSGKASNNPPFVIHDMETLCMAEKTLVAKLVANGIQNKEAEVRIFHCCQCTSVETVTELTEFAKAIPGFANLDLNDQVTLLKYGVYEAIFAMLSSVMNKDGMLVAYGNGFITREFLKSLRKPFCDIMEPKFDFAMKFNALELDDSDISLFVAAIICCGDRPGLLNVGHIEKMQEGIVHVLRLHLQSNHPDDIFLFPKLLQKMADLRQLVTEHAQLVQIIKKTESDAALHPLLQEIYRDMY

CC(C)Oc1cc(NC(=O)CCCC(=O)O)c(Cl)cc1Cl [Compound B114, 5-((2,4-dichloro-5-isopropoxyphenyl)amino)-5-oxopentanoic acid] was tested, and the pKd (FABP4) was 6.66 and the pKd (FABP5) was 8.22.

With CC(C)Oc1cc(NC(=O)C(C)SC(C)C(=O)O)c(Cl)cc1Cl (centres unmarked) [Compound B106, 2-((1-((2,4-dichloro-5-isopropoxyphenyl)amino)-1-oxopropan-2-yl)thio)propanoic acid] the pKd (FABP4) was 6.54 and the pKd (FABP5) was 7.82.

CC(C)Oc1cc(NC(=O)CSC(C)(C)C(=O)O)c(Cl)cc1Cl [Compound B104, 2-((2-((2,4-dichloro-5-isopropoxyphenyl)amino)-2-oxoethyl)thio)-2-methylpropanoic acid] was tested, and the pKd (FABP4) was 7.01, the pKd (FABP5) was 8.15 and the “activation of PPARα” value (PPARα; 5 μM, COS7 cells, FIG. 36B) was “activate both PPARα and PPARγ”. The “activation of PPARγ” value (PPARγ) was “activate both PPARα and PPARγ”, the “activation of transcription by PPARδ” value (PPARδ; 5 μM, COS7 cells, FIG. 36A) was “do not Activate Transcription” and the “suppression of growth of TNBC cells compared with SBF-I26” value (“suppression … compared with SBF-I26” below) (MB-231 cells) was “Suppress Growth of TNBC Cells More Effectively than the Commercially Available Inhibitor SBF-I26”. For the same molecule, the “proliferation of neuroblastoma cells in combination with atRA” value [1] was “enhanced” and the “proliferation of neuroblastoma cells” value [1] was “significantly inhibited proliferation”.

CC(C)Oc1cc(NC(=O)C2CCC(C(=O)O)S2)c(Cl)cc1Cl (centres unmarked) [Compound B108, 5-((2,4-dichloro-5-isopropoxyphenyl)-carbamoyl)tetrahydrothiophene-2-carboxylic acid] was tested, and the pKd (FABP4) was 7.32, the pKd (FABP5) was 8.70 and the “activation of PPARγ” value (PPARγ) was “activated PPARγ”. The “activation of transcription by PPARδ” value (PPARδ; 5 μM, COS7 cells, FIG. 36A) was “do not Activate Transcription”, the “suppression … compared with SBF-I26” value (MB-231 cells) was “Suppress Growth of TNBC Cells More Effectively than the Commercially Available Inhibitor SBF-I26” and the “proliferation of neuroblastoma cells in combination with atRA” value [1] was “enhanced”. The “proliferation of neuroblastoma cells” value [1] was “significantly inhibited proliferation”.

O=C(O)CSCC(=O)Nc1cc(OCc2ccccc2)c(Cl)cc1Cl [Compound B7] was tested, and the “activation of PPARα” value (PPARα; compared to WY-14643, FIG. 6) was “activate PPARα”, the “activation of transcription by PPARγ” value (PPARγ) was “did not activate transcription” and the “activation of transcription by PPARδ” value (PPARδ; compared to GW0742, FIG. 5) was “did not active transcription”. For the same molecule, the “inhibition of PPARγ activity in cells overexpressing FABP4” value [2] was “inhibit activity of the nuclear receptors only in cells that express the binding proteins”, the “inhibition of PPARδ activity in cells overexpressing FABP5” value [3] was “inhibit activity of the nuclear receptors only in cells that express the binding proteins” and the “levels of endogenous PPARδ targets PDPK1 and CD47” value [4] was “significantly lower”. For the same molecule, the “levels of endogenous PPARδ targets PDPK1 and CD47” value [5] was “significantly lower”, the “TNBC cell growth, shC versus shF5” value [6] was “suppressed TNBC cell growth only in the cells highly expressing FABP5” and the “growth inhibition of TNBC lines by FABP5 level” value (TNBC lines and MCF7) was “inhibited growth of only TNBC lines expressing high FABP5 levels”.

With C#CCOc1cc(NC(=O)CSCC(=O)O)c(Cl)cc1Cl [Compound B9] the “activation of transcription by PPARγ” value (PPARγ) was “did not activate transcription”, the “activation of transcription by PPARδ” value (PPARδ; compared to GW0742, FIG. 5) was “did not active transcription” and the “inhibition of PPARγ activity in cells overexpressing FABP4” value [2] was “inhibit activity of the nuclear receptors only in cells that express the binding proteins”. The “inhibition of PPARδ activity in cells overexpressing FABP5” value [3] was “inhibit activity of the nuclear receptors only in cells that express the binding proteins”, the “levels of endogenous PPARδ targets PDPK1 and CD47” value [4] was “significantly lower” and the “levels of endogenous PPARδ targets PDPK1 and CD47” value [5] was “significantly lower”. The “TNBC cell growth, shC versus shF5” value [6] was “suppressed TNBC cell growth only in the cells highly expressing FABP5” and the “growth inhibition of TNBC lines by FABP5 level” value (TNBC lines and MCF7) was “inhibited growth of only TNBC lines expressing high FABP5 levels”.

For CC(C)Oc1cc(NC(=O)COCC(=O)O)c(Cl)cc1Cl [Compound B110, 2-(2-((2,4-dichloro-5-isopropoxyphenyl)amino)-2-oxoethoxy)acetic acid], the pKd (FABP4) was 6.62, the pKd (FABP5) was 7.82 and the “activation of transcription by PPARδ” value (PPARδ; 5 μM, COS7 cells, FIG. 36A) was “do not Activate Transcription”. For the same molecule, the “suppression … compared with SBF-I26” value (MB-231 cells) was “Suppress Growth of TNBC Cells More Effectively than the Commercially Available Inhibitor SBF-I26”.

With CC(C)Oc1cc(NC(=O)CSC(C)C(=O)O)c(Cl)cc1Cl (centres unmarked) [Compound B102, 2-((2-((2,4-dichloro-5-isopropoxyphenyl)amino)-2-oxoethyl)thio)propanoic acid] the pKd (FABP4) was 6.94 and the pKd (FABP5) was 8.22.

Molecule CC(C)Oc1cc(NC(=O)C2CCC(C(=O)O)O2)c(Cl)cc1Cl (centres unmarked) [Compound B112, 5-((2,4-dichloro-5-isopropoxyphenyl)carbamoyl)tetrahydrofuran-2-carboxylic acid] has a pKd (FABP4) of 6.94 and a pKd (FABP5) of 7.82.
